29 molecules from US20120122870A1, “Treatment Of Ischemia-Reperfusion Injury” (MUSC FOUNDATION FOR RESEARCH DEVELOPMENT, priority 2009, published 2012) can be followed below.

Molecules are shown by their SMILES.

For one experiment, the target named is T1, recombinant human SK (Homo sapiens, UniProt Q9NYA1).
T1 construct: GST (glutathione-S-transferase) (N); made in house; host or cells: bacteria (pGEX bacterial expression vector)
The experiment is described as follows: Recombinant human SK activity assay ([3H]sphingosine to [3H]S1P). Format: biochemical. Particulars: Human SK incubated with 6 μg/mL of compound; percentage of SK activity inhibited. The protocol: SK activity is measured by incubation of the recombinant SK with [^3H]sphingosine and 1 mM ATP under defined conditions, followed by extraction of the assay mixture with chloroform:methanol under basic conditions. […] Radioactivity in aliquots of the aqueous phase is then quantified as a measure of [^3H]S1P formation.
Human SK was incubated with 6 μg/mL of the indicated compounds, and then assayed for activity as described above. Values in the column labeled “Recombinant SK (% inhibition)” represent the percentage of SK activity that was inhibited. MDA-MB-231 cells were incubated with 20 μg/mL of the indicated compounds and then assayed for endogenous SK activity as indicated above. Values in the column labeled “Cellular S1P (% inhibition)” represent the percentage of S1P production that was inhibited. Additionally, MDA-MB-231 cells were treated with varying concentration of certain compounds and the amount of S1P produced by the cells was determined. Values in the column labeled “Cellular S1P IC50 (μM)” represent the concentration of compound required to inhibit the production of S1P by 50%. ND=not determined.

Experiment [1] has as its system endogenous SK activity in MDA-MB-231 cells. Briefly: Cellular S1P production (endogenous SK activity) in MDA-MB-231 cells. It is filed as cell-based. The note with it: Homo sapiens; for inhibition at 20 µg/mL: MDA-MB-231, MDA-MB-231 cells incubated with 20 μg/mL of compound, percentage of S1P production inhibited. The gist of the method: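 MDA-MB-231 cells treated with 20 μg/mL compound and assayed for endogenous SK activity, reported as % inhibition of S1P production. For IC50, cells received varying compound concentrations and S1P produced was measured; IC50 is the concentration giving 50% inhibition.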

T1 sequence (Q9NYA1 whole entry): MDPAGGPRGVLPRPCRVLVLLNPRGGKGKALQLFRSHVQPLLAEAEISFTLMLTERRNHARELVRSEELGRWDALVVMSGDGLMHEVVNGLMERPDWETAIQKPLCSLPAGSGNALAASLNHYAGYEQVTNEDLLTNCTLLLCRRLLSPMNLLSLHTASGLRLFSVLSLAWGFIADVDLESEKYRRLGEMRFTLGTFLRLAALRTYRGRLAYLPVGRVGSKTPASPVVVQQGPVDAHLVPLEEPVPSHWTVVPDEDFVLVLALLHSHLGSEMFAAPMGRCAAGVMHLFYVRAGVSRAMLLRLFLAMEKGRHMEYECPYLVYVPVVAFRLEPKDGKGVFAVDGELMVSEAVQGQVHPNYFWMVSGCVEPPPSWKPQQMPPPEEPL

For `CC(C)NC(=O)C12CC3CC(C1)CC(c1ccc(Cl)cc1)(C3)C2` [A1, 3-(4-Chloro-phenyl)-adamantane-1-carboxylic acid isopropylamide], at recombinant human SK, the inhibition at 6 µg/mL worked out at 38%. The molecule further came in with an inhibition at 20 µg/mL in experiment [1] of 0%.

In the case of `O=C(Nc1ccccc1)C12CC3CC(C1)CC(c1ccc(Cl)cc1)(C3)C2` [A4, 3-(4-Chloro-phenyl)-adamantane-1-carboxylic acid phenylamide], the inhibition at 6 µg/mL on recombinant human SK is 44%. The same molecule gave an inhibition at 20 µg/mL in experiment [1] of 14%.

Consider `O=C(Nc1ccc(O)cc1)C12CC3CC(CC(C3)C1)C2` [A5, Adamantane-1-carboxylic acid (4-hydroxy-phenyl)-amide], for which the inhibition at 6 µg/mL on recombinant human SK was found to be 100%. Moreover, in experiment [1], at 20 µg/mL the inhibition was 17%.

For `O=C(Nc1ccc(O)cc1)C12CC3CC(C1)CC(c1ccc(Cl)cc1)(C3)C2` [A6, 3-(4-Chloro-phenyl)-adamantane-1-carboxylic acid (4-hydroxy-phenyl)-amide], the inhibition at 6 µg/mL at recombinant human SK was 72%. In experiment [1], testing at 20 µg/mL gave an inhibition of 90%. The same molecule came in with an IC50 in experiment [1] (MDA-MB-231 cells, varying concentrations, concentration inhibiting S1P production by 50%) of 15 µM.

On to `CC(=O)Oc1ccc(NC(=O)C23CC4CC(C2)CC(c2ccc(Cl)cc2)(C4)C3)cc1` [A7, Acetic acid 4-{[3-(4-chloro-phenyl)-adamantane-1-carbonyl]-amino}-phenyl ester], for which the inhibition at 6 µg/mL at recombinant human SK was found to be 100%. For the same molecule, in experiment [1], 20 µg/mL produced 96% inhibition.

Regarding `O=C(Nc1ccc(O)cc1O)C12CC3CC(C1)CC(c1ccc(Cl)cc1)(C3)C2` [A8, 3-(4-Chloro-phenyl)-adamantane-1-carboxylic acid (2,4-dihydroxy-phenyl)-amide], the inhibition at 6 µg/mL on recombinant human SK was found to be 49%. In addition, the inhibition at 20 µg/mL in experiment [1] was determined as 0%.

For the molecule `O=C(Nc1cccc(CO)c1)C12CC3CC(C1)CC(c1ccc(Cl)cc1)(C3)C2` [A9, 3-(4-Chloro-phenyl)-adamantane-1-carboxylic acid (3-hydroxymethyl-phenyl)-amide], on recombinant human SK, the inhibition at 6 µg/mL is 84%. The inhibition at 20 µg/mL in experiment [1] is 40%.

For `N#CCc1ccc(NC(=O)C23CC4CC(CC(C4)C2)C3)cc1` [A10, Adamantane-1-carboxylic acid (4-cyanomethyl-phenyl)-amide], the inhibition at 6 µg/mL at recombinant human SK worked out at 3%. This molecule also returned an inhibition at 20 µg/mL in experiment [1] of 9%.

On to `O=C(Nc1nnn[nH]1)C12CC3CC(C1)CC(c1ccc(Cl)cc1)(C3)C2` [A67, 3-(4-Chloro-phenyl)-adamantane-1-carboxylic acid (1H-tetrazol-5-yl)-amide], for which the inhibition at 6 µg/mL at recombinant human SK amounted to 10%.

Take `O=C(Nc1ncnc2[nH]cnc12)C12CC3CC(C1)CC(c1ccc(Cl)cc1)(C3)C2` [A73, 3-(4-Chloro-phenyl)-adamantane-1-carboxylic acid (9H-purin-6-yl)-amide]: the inhibition at 6 µg/mL on recombinant human SK was 53%.

In the case of `FC(F)(F)c1ccc(CNCC23CC4CC(C2)CC(c2ccc(Cl)cc2)(C4)C3)cc1` [A77, [3-(4-Chloro-phenyl)-adamantan-1-ylmethyl]-(4-trifluoromethyl-benzyl)-amine], on recombinant human SK, the inhibition at 6 µg/mL is 27%.

On to `Fc1cc(C(F)(F)F)ccc1CNCC12CC3CC(C1)CC(c1ccc(Cl)cc1)(C3)C2` [A78, [3-(4-Chloro-phenyl)-adamantan-1-ylmethyl]-(2-fluoro-4-trifluoromethyl-benzyl)-amine], for which the inhibition at 6 µg/mL on recombinant human SK worked out at 43%.

Turning to `Fc1ccc(CNCC23CC4CC(C2)CC(c2ccc(Cl)cc2)(C4)C3)cc1C(F)(F)F` [A79, [3-(4-Chloro-phenyl)-adamantan-1-ylmethyl]-(4-fluoro-3-trifluoromethyl-benzyl)-amine], on recombinant human SK, the inhibition at 6 µg/mL came to 19%.

Regarding `FC(F)(F)Oc1ccc(CNCC23CC4CC(C2)CC(c2ccc(Cl)cc2)(C4)C3)cc1` [A80, [3-(4-Chloro-phenyl)-adamantan-1-ylmethyl]-(4-trifluoromethoxy-benzyl)-amine], the inhibition at 6 µg/mL on recombinant human SK worked out at 5%.

Turning to `Clc1ccc(C23CC4CC(CC(CNCCc5cccc(Oc6ccccc6)c5)(C4)C2)C3)cc1` [A81, [3-(4-Chloro-phenyl)-adamantan-1-ylmethyl]-[2-(3-phenoxy-phenyl)-ethyl]-amine], the inhibition at 6 µg/mL at recombinant human SK came to 67%.

Take `CN1CCC(NCC23CC4CC(C2)CC(c2ccc(Cl)cc2)(C4)C3)CC1` [A82, [3-(4-Chloro-phenyl)-adamantan-1-ylmethyl]-(1-methyl-piperidin-4-yl)-amine]: at recombinant human SK, the inhibition at 6 µg/mL worked out at 75%.

With `CC(C)(C)NCCCNCC12CC3CC(C1)CC(c1ccc(Cl)cc1)(C3)C2` [A84, N-tert-Butyl-N′-[3-(4-chloro-phenyl)-adamantan-1-ylmethyl]-propane-1,3-diamine], the inhibition at 6 µg/mL on recombinant human SK came out at 84%.

Turning to `Clc1ccc(C23CC4CC(CC(CNCCCN5CCCC5)(C4)C2)C3)cc1` [A85, [3-(4-Chloro-phenyl)-adamantan-1-ylmethyl]-(3-pyrrolidin-1-yl-propyl)-amine], the inhibition at 6 µg/mL on recombinant human SK stood at 0%.

On to `CN1CCCC1CCNCC12CC3CC(C1)CC(c1ccc(Cl)cc1)(C3)C2` (centres unmarked) [A86, [3-(4-Chloro-phenyl)-adamantan-1-ylmethyl]-[2-(1-methyl-pyrrolidin-2-yl)-ethyl]-amine], for which, on recombinant human SK, the inhibition at 6 µg/mL stood at 6%.

`Clc1ccc(C23CC4CC(CC(CNCc5ccncc5)(C4)C2)C3)cc1` [A88, [3-(4-Chloro-phenyl)-adamantan-1-ylmethyl]-pyridin-4-ylmethyl-amine]: the inhibition at 6 µg/mL on recombinant human SK stood at 1%.

For the molecule `CC(Nc1ccccc1)C12CC3CC(CC(c4ccccc4)(C3)C1)C2` (centres unmarked) [A93, Phenyl-[1-(3-phenyl-adamantan-1-yl)-ethyl]-amine], the inhibition at 6 µg/mL on recombinant human SK is 70%.

As to `CC(NC1CCN(C)CC1)C12CC3CC(CC(C3)C1)C2` (centres unmarked) [A104, (1-Adamantan-1-yl-ethyl)-(1-methyl-piperidin-4-yl)-amine], the inhibition at 6 µg/mL at recombinant human SK came out at 0%.

On to `O=C(/C=C/c1ccc(Cl)cc1)C12CC3CC(C1)CC(c1ccc(Cl)cc1)(C3)C2` [A130, 3-(4-Chloro-phenyl)-1-[3-(4-chloro-phenyl)-adamantan-1-yl]-propenone], for which the inhibition at 6 µg/mL on recombinant human SK turned out to be 38%.

For the molecule `N#Cc1ccc(/C=C/C(=O)C23CC4CC(C2)CC(c2ccc(Cl)cc2)(C4)C3)cc1` [A131, 4-{3-[3-(4-Chloro-phenyl)-adamantan-1-yl]-3-oxo-propenyl}-benzonitrile], at recombinant human SK, the inhibition at 6 µg/mL is 41%.

Take `O=C(/C=C/c1ccc(O)cc1)C12CC3CC(C1)CC(c1ccc(Cl)cc1)(C3)C2` [A132, 1-[3-(4-Chloro-phenyl)-adamantan-1-yl]-3-(4-hydroxy-phenyl)-propenone]: the inhibition at 6 µg/mL at recombinant human SK was 8%.

`O=C(/C=C/c1ccc2ccccc2c1)C12CC3CC(C1)CC(c1ccc(Cl)cc1)(C3)C2` [A133, 1-[3-(4-Chloro-phenyl)-adamantan-1-yl]-3-naphthalen-2-yl-propenone]: the inhibition at 6 µg/mL at recombinant human SK was determined as 36%.

Turning to `O=C(/C=C/c1ccc(Cl)nc1)C12CC3CC(C1)CC(c1ccc(Cl)cc1)(C3)C2` [A134, 1-[3-(4-Chloro-phenyl)-adamantan-1-yl]-3-(6-chloro-pyridin-3-yl)-propenone], on recombinant human SK, the inhibition at 6 µg/mL worked out at 52%.

For `O=C(/C=C/c1cnc[nH]1)C12CC3CC(C1)CC(c1ccc(Cl)cc1)(C3)C2` [A135, 1-[3-(4-Chloro-phenyl)-adamantan-1-yl]-3-(1H-imidazol-4-yl)-propenone], at recombinant human SK, the inhibition at 6 µg/mL worked out at 64%.

As to `O=C(NCCCN1CCCC1)c1nc(-c2ccc(Cl)cc2)cs1` [B59, 4-(4-Chloro-phenyl)-thiazole-2-carboxylic acid (3-pyrrrolidin-1-yl-propyl)-amide], on recombinant human SK, the “Recombinant SK (% inhibition)” value was found to be 46%.
